Experimental data as given in ChEMBL document CHEMBL3352632 (Bioorg Med Chem, 2014).
Active and inactive are the calls of the source. No cut-off for these calls is given here.

Tests used:
[1] = Selectivity for fluorescently-labeled c-KIT1 G-quadruplex DNA (unknown origin) over fluorescently-labeled c-MYC G-quadruplex DNA (unknown origin)
[2] = Binding affinity to fluorescently-labeled c-KIT1 G-quadruplex DNA (unknown origin) assessed as change in melting temperature at 2 uM in presence of 20 uM duplex DNA by FRET assay
[3] = tested on: HepG2; test: Cell cycle arrest in human HepG2 cells assessed as accumulation at G0/G1 phase at 2.5 uM after 12 hrs by propidium iodide staining based flow cytometry (reference value: 53.4%); assay type: functional
[4] = Binding affinity to fluorescently-labeled c-KIT1 G-quadruplex DNA (unknown origin) assessed as change in melting temperature at 2 uM in presence of 5 uM c-KIT2 G-quadruplex DNA by FRET assay
[5] = tested on: HepG2; test: Induction of apoptosis in human HepG2 cells assessed as late apoptotic cells level at 2.5 uM after 24 hrs by annexin V/propidium iodide double staining based flow cytometry; assay type: functional
[6] = tested on: HepG2; test: Cell cycle arrest in human HepG2 cells assessed as accumulation at G0/G1 phase at 5 uM after 12 hrs by propidium iodide staining based flow cytometry (reference value: 53.4%); assay type: functional
[7] = tested on: HepG2; test: Cell cycle arrest in human HepG2 cells assessed as accumulation at subG0 phase at 5 uM after 12 hrs by propidium iodide staining based flow cytometry (reference value: 1.8%); assay type: functional
[8] = tested on: HepG2; test: Induction of apoptosis in human HepG2 cells assessed as late apoptotic cells level at 10 uM after 24 hrs by annexin V/propidium iodide double staining based flow cytometry; assay type: functional
[9] = tested on: HepG2; test: Cell cycle arrest in human HepG2 cells assessed as accumulation at G2/M phase at 2.5 uM after 12 hrs by propidium iodide staining based flow cytometry (reference value: 25.2%); assay type: functional
[10] = tested on: HepG2; test: Cell cycle arrest in human HepG2 cells assessed as accumulation at S phase at 2.5 uM after 12 hrs by propidium iodide staining based flow cytometry (reference value: 19.5%); assay type: functional
[11] = tested on: HepG2; test: Cytotoxicity against human HepG2 cells after 24 hrs by MTT assay; conditions: HepG2, 24 h
[12] = tested on: HepG2; test: Induction of apoptosis in human HepG2 cells assessed as early apoptotic cells level at 10 uM after 24 hrs by annexin V/propidium iodide double staining based flow cytometry; assay type: functional
[13] = Selectivity for fluorescently-labeled c-KIT1 G-quadruplex DNA (unknown origin) over fluorescently-labeled c-KIT2 G-quadruplex DNA (unknown origin)
[14] = Binding affinity to fluorescently-labeled c-KIT1 G-quadruplex DNA (unknown origin) assessed as change in melting temperature at 2 uM in presence of 5 uM h-TELO G-quadruplex DNA by FRET assay
[15] = tested on: HepG2; test: Cell cycle arrest in human HepG2 cells assessed as accumulation at G2/M phase at 5 uM after 12 hrs by propidium iodide staining based flow cytometry (reference value: 25.2%); assay type: functional
[16] = tested on: HepG2; test: Induction of apoptosis in human HepG2 cells assessed as necrotic cells level at 5 uM after 24 hrs by annexin V/propidium iodide double staining based flow cytometry; assay type: functional
[17] = tested on: HepG2; test: Induction of apoptosis in human HepG2 cells assessed as necrotic cells level at 2.5 uM after 24 hrs by annexin V/propidium iodide double staining based flow cytometry; assay type: functional
[18] = Binding affinity to fluorescently-labeled c-MYC G-quadruplex DNA (unknown origin) by thiazole-ornage dye based fluorescence intercalator displacement assay
[19] = tested on: HepG2; test: Cell cycle arrest in human HepG2 cells assessed as accumulation at S phase at 5 uM after 12 hrs by propidium iodide staining based flow cytometry (reference value: 19.5%); assay type: functional
[20] = tested on: HepG2; test: Induction of apoptosis in human HepG2 cells assessed as necrotic cells level at 10 uM after 24 hrs by annexin V/propidium iodide double staining based flow cytometry; assay type: functional
[21] = tested on: HepG2; test: Induction of apoptosis in human HepG2 cells assessed as early apoptotic cells level at 2.5 uM after 24 hrs by annexin V/propidium iodide double staining based flow cytometry; assay type: functional
[22] = tested on: HepG2; test: Cell cycle arrest in human HepG2 cells assessed as accumulation at G2/M phase at 10 uM after 12 hrs by propidium iodide staining based flow cytometry (reference value: […]); assay type: functional
[23] = Selectivity for fluorescently-labeled c-KIT1 G-quadruplex DNA (unknown origin) over fluorescently-labeled h-TELO G-quadruplex DNA (unknown origin)
[24] = tested on: HepG2; test: Cell cycle arrest in human HepG2 cells assessed as accumulation at S phase at 10 uM after 12 hrs by propidium iodide staining based flow cytometry (reference value: 19.10%); assay type: functional
[25] = Binding affinity to fluorescently-labeled c-KIT1 G-quadruplex DNA (unknown origin) assessed as change in melting temperature at 2 uM in presence of 5 uM c-MYC G-quadruplex DNA by FRET assay
[26] = Binding affinity to fluorescently-labeled c-KIT1 G-quadruplex DNA (unknown origin) by thiazole-ornage dye based fluorescence intercalator displacement assay
[27] = tested on: HepG2; test: Induction of apoptosis in human HepG2 cells assessed as late apoptotic cells level at 5 uM after 24 hrs by annexin V/propidium iodide double staining based flow cytometry; assay type: functional
[28] = Binding affinity to fluorescently-labeled c-KIT1 G-quadruplex DNA (unknown origin) assessed as change in melting temperature by FRET assay
[29] = Binding affinity to fluorescently-labeled h-TELO G-quadruplex DNA (unknown origin) by thiazole-ornage dye based fluorescence intercalator displacement assay
[30] = tested on: HepG2; test: Cell cycle arrest in human HepG2 cells assessed as accumulation at subG0 phase at 10 uM after 12 hrs by propidium iodide staining based flow cytometry (reference value: 1.8%); assay type: functional
[31] = Binding affinity to fluorescently-labeled duplex DNA (unknown origin) by thiazole-ornage dye based fluorescence intercalator displacement assay
[32] = Binding affinity to fluorescently-labeled c-KIT2 G-quadruplex DNA (unknown origin) by thiazole-ornage dye based fluorescence intercalator displacement assay
[33] = Binding affinity to fluorescently-labeled c-KIT1 G-quadruplex DNA (unknown origin) assessed as change in melting temperature at 2 uM by FRET assay
[34] = tested on: HepG2; test: Induction of apoptosis in human HepG2 cells assessed as early apoptotic cells level at 5 uM after 24 hrs by annexin V/propidium iodide double staining based flow cytometry; assay type: functional
[35] = tested on: HepG2; test: Cell cycle arrest in human HepG2 cells assessed as accumulation at G0/G1 phase at 10 uM after 12 hrs by propidium iodide staining based flow cytometry (reference value: […]); assay type: functional
[36] = tested on: HepG2; test: Cell cycle arrest in human HepG2 cells assessed as accumulation at subG0 phase at 2.5 uM after 12 hrs by propidium iodide staining based flow cytometry (reference value: 1.8%); assay type: functional

## O=C(NCc1cn(-c2ccc(NC(=O)[C@@H]3CCCN3)cc2)nn1)c1cccc(C(=O)NCc2cn(-c3ccc(NC(=O)[C@@H]4CCCN4)cc3)nn2)n1
[1]
  Selectivity ratio: 5
[2]
  Activity: inactive
[3]
  Activity: 56.2%
[4]
  Activity: inactive
[5]
  Activity: 3.9%
[6]
  Activity: 55.5%
[7]
  Activity: 6.1%
[8]
  Activity: 6.7%
[9]
  Activity: 26.7%
[10]
  Activity: 13.8%
[11]
  IC50: 7.42 µM
[12]
  Activity: 7.3%
[13]
  Selectivity ratio: 30
[14]
  Activity: inactive
[15]
  Activity: 24.4%
[16]
  Activity: 38.6%
[17]
  Activity: 29.3%
[18]
  DC50: 11.3 µM
  Kd: 3.8 µM
[19]
  Activity: 14%
[20]
  Activity: 85.8%
[21]
  Activity: 0.6%
[22]
  Activity: 18.4%
[23]
  Selectivity ratio: 15
[24]
  Activity: 8.2%
[25]
  Activity: inactive
[26]
  DC50: 0.47 µM
  Kd: 0.74 µM
[27]
  Activity: 2.6%
[28]
  Activity: Dose-dependent effect
[29]
  DC50: 7.3 µM
  Kd: 11.6 µM
[30]
  Activity: 7.4%
[31]
  DC50: > 25 µM
[32]
  DC50: 9.5 µM
  Kd: 22.7 µM
[33]
  deltaTm: 30.6 K
[34]
  Activity: 0.2%
[35]
  Activity: 65.8%
[36]
  Activity: 3.3%
